Laboratory results: patent US20080234226A1, “Use Of Iron(III) Complex Compounds For The Preparation Of A Medicament For Oral Treatment Of Iron Deficiency States In Patients With Chronic Inflammatory Bowel Disease” (VIFOR (INTERNATIONAL) AG, priority 2005, published 2008)
Read-outs that look alike come from different tables or passages of the source. Marks after values point to notes of the source that are not given here.

Assays:
[1] = tested on: patients with chronic inflammatory bowel disease; assay: Clinical disease activity, symptoms, compliance and tolerability during oral iron therapy; format: in vivo, human; conditions: for total number of defecations per week: median (range)
Protocol: The status of the clinical disease was recorded before (day 1) and after (day 15) the iron therapy. The clinical disease activity was evaluated in patients with Crohn's disease with the “Harvey-Bradshaw Simple Index of Crohn's Disease Activity” (Harvey, R F., Bradshaw, J M., Lancet, 1980; 1:514). The Harvey-Bradshaw Simple Index is based on 5 parameters: general well-being, abdominal pain, stool frequency, abdominal mass and extraintestinal complications. The maximum score is 25 and scores of ≧5 indicate active Crohn's disease.
In patients with colitis ulcerosa, the “Simple Clinical Colitis Activity Index” was recorded (Walmsley, R S., Ayres, R C., Pounder, R E., Allan, R N., Gut 1998; 43; 29-32). The Simple Clinical Colitis Activity Index is based on 6 parameters: general well-being, stool frequency during the day and during the night, urgency of defecation, blood in the stool and extraintestinal complications. The maximum score is 20 and values of ≧4 indicate active colitis ulcerosa.
The Harvey-Bradshaw Simple Index and the Simple Clinical Colitis Activity Index are the same in respect of structure and the clinical significance of a given change in the scores. In order to allow the results of patients with Crohn's disease and colitis ulcerosa to be considered together, the activity scores were calculated as the actual score divided by the maximum score.
All the patients completed the particular Crohn's Disease Activity Index (CDAI) diary card (Best, W R., Becktel, J M., Singleton, J W., Kern, F. Jr., Gastroenterology 1976; 70:439-444) in the week before the start of the iron therapy and during the two weeks of iron therapy. The CDAI diary card comprises daily recording of general well-being, abdominal pain and the number of liquid or very soft stools. The total of seven daily records gives a score for each symptom. The higher the score, the more the patient is adversely affected. The medicament was administered during the study for 14 days and the mean for the two weeks is therefore used for the analysis. The patients also documented the occurrence of nausea before and during the iron therapy.
Patients who discontinued treatment with the medicament because of a deterioration in the symptoms were included in the analysis of the clinical disease activity and the symptom scores. Their disease activity scores were increased by two points, and the symptom scores were increased by one point per day.

[2] = tested on: patients with chronic inflammatory bowel disease; conditions: in vivo
Protocol: (§1) Analysis of the blood, urine and stool and the clinical evaluation of the disease were carried out on day 1 and 15.
(§2) The tablets were taken in accordance with the manufacturer's recommendations. Patient compliance was defined as the consumption of the tablets handed out, 80% being regarded as satisfactory.
(§3) Blood samples were taken, after fasting during the night, on the morning of day 1 and day 15.
The values were analysed using the Wilcoxon test for pair differences, and the median and range are stated. The comparison of ratios was evaluated with the Fisher Exact test. […] The data were analysed using the GraphPad Prism 4 for Windows statistics software package (GraphPad Software, Inc., San Diego, USA).

[3] = tested on: patients with chronic inflammatory bowel disease; assay: Markers of oxidative stress (plasma, urine) before and after 14 days oral iron therapy; conditions: for P-malondialdehyde / P-beta-carotene / P-cysteine / P-cysteinyl-glycine / P-glutathione / P-homocysteine / P-vitamin A / P-vitamin C / P-vitamin E: plasma; for P-malondialdehyde / P-beta-carotene / P-cysteine / P-cysteinyl-glycine / P-glutathione / P-homocysteine / P-vitamin A / P-vitamin C / P-vitamin E / U-8-iso-PGF2α: mean (SEM); for U-8-iso-PGF2α: urine
Protocol: as §1, §2, §3
Urine samples were collected on the morning of day 1 and day 15 and analysed for creatinine. Butyl-hydroxy-toluene (BHT) was added to 2 ml urine to a final concentration of 20 mM. The samples were then stored at −80° C. until analysed for urine 8-isoprostaglandin F2α (8-iso-PGF2α).
The values were analysed using the Wilcoxon test for pair differences, and the median and range are stated. The comparison of ratios was evaluated with the Fisher Exact test. P values of less than 0.05 are considered to be statistically significant. The data were analysed using the GraphPad Prism 4 for Windows statistics software package (GraphPad Software, Inc., San Diego, USA).

[4] = tested on: white mice; conditions: cited from earlier work
[5] = mean of differences after vs before 14 days treatment
[6] = after 14 days oral treatment (day 15)

Which “influence on general wellbeing or abdominal pain score” value ([1]; CDAI diary card) does the source give for O=S(=O)([O-])[O-].[Fe+2] [Iron(II) sulfate, iron(II) sulfate] here?
The value was “Neither iron(II) sulfate nor iron(III)-polymaltose complex had an influence”.

What about the “total number of defecations per week” value ([1]; before treatment) of the same compound?
Its value is 19 (7-106).

What about the “change of clinical disease activity indices” value ([1]; day 15 vs day 1) of the same compound?
Its value is “Neither the treatment with iron(II) sulfate (p=0.45) nor the treatment with iron(III)-polymaltose complex (p=0.80) substantially changed the clinical disease activity indices”.

What about the “total number of defecations per week” value ([1]; during the treatment) of the same compound?
Its value is 24 (7-55).

What about the “patients who discontinued the treatment (intolerable bowel movements, abdominal pain and nausea)” value ([1]; of n=21 iron(II) sulfate, n=20 iron(III)-polymaltose complex) of the same compound?
Its value is “Three patients”.

And the Increased nausea reported ([1]; patients reporting / patients treated)?
Its Increased nausea reported is 9/21.

What about the B-ESR [2] of the same compound?
The B-ESR was 11 (2) mm/h.

And the B-erythrocyte count [2]?
Its B-erythrocyte count is 4.8 (0.1) 10^12/l.

And the B-haematocrit [2]?
Its B-haematocrit is 41 (1) %.

What about the B-haemoglobin [2] of the same compound?
Its B-haemoglobin is 13.1 (0.4) g/dl.

And the B-leukocyte count [2]?
Its B-leukocyte count is 6.5 (0.5) 10^9/l.

And the B-platelet count [2]?
Its B-platelet count is 324 (23) 10^9/l.

And the B-reticulocyte count [2]?
Its B-reticulocyte count is 0.068 (0.006) 10^12/l.

What about the “Hypochromic red cells (HYPO)” value [2] of the same compound?
The value was 10.4 (3.6) %.

What about the MCH [2] of the same compound?
The MCH was 27 (0.8) pg.

What about the MCHC [2] of the same compound?
Its MCHC is 31.8 (0.4) g/dl.

What about the MCV [2] of the same compound?
The MCV was 86 (1.6) fl.

What about the “Reticulocyte haemoglobin (CHr)” value [2] of the same compound?
Its value is 29.3 (0.8) pg.

And the S-CRP [2]?
The S-CRP was 7 (2) mg/l.

What about the S-ferritin [2] of the same compound?
The S-ferritin was 13 (2) μg/l.

And the S-iron [2]?
The S-iron was 11.1 (2.0) μmol/l.

And the “S-total iron binding capacity” value [2]?
Its value is 81 (2) μmol/l.

And the “decrease in the hypochromic red cells” value [2]?
The value was −2.5%.

What about the “decrease in the serum total iron binding capacity” value [2] of the same compound?
Its value is -7 µmol/L.

And the “increase in blood reticulocyte count” value [2]?
The value was 1.6e+10 L⁻¹.

What about the increase in s-ferritin [2] of the same compound?
The increase in s-ferritin was 12 µg/L.

And the “increase in the reticulocyte haemoglobin” value [2]?
The value was 1.9 pg.

What about the “increase of blood haemoglobin” value [2] of the same compound?
The value was “Neither iron(II) sulfate nor iron(III)-polymaltose complex increased the blood haemoglobin”.

And the B-ESR ([2]; po)?
Its B-ESR is 10 (2) mm/h.

And the B-erythrocyte count ([2]; po)?
The B-erythrocyte count was 4.8 (0.1) 10^12/l.

And the B-haematocrit ([2]; po)?
The B-haematocrit was 42 (1)* %.

What about the B-haemoglobin ([2]; po) of the same compound?
Its B-haemoglobin is 13.3 (0.3) g/dl.

What about the B-leukocyte count ([2]; po) of the same compound?
Its B-leukocyte count is 6.3 (0.4) 10^9/l.

And the B-platelet count ([2]; po)?
Its B-platelet count is 306 (21) 10^9/l.

And the B-reticulocyte count ([2]; po)?
Its B-reticulocyte count is 0.084 (0.007) 10^12/l.

What about the “Hypochromic red cells (HYPO)” value ([2]; po) of the same compound?
Its value is 8.8 (3.2)* %.

What about the MCH ([2]; po) of the same compound?
Its MCH is 28 (0.8)*# pg.

And the MCHC ([2]; po)?
Its MCHC is 32.0 (0.3) g/dl.

What about the MCV ([2]; po) of the same compound?
The MCV was 87 (1.3)* fl.

And the “Reticulocyte haemoglobin (CHr)” value ([2]; po)?
Its value is 31.1 (0.7)* pg.

And the S-CRP ([2]; po)?
Its S-CRP is 6 (2) mg/l.

What about the S-ferritin ([2]; po) of the same compound?
Its S-ferritin is 25 (3)*# μg/l.

What about the S-iron ([2]; po) of the same compound?
Its S-iron is 14.2 (2.2) μmol/l.

What about the “S-total iron binding capacity” value ([2]; po) of the same compound?
The value was 74 (2)*# μmol/l.

And the “change in plasma MDA values” [3, 5]?
Its value is 95 nmol/L.

And the “change in urine iso-PGF2α values” [3, 5]?
The value was 194 pg/mg creatinine.

And the P-malondialdehyde [3, 6]?
The P-malondialdehyde was 395 (25)* nmol/l.

What about the P-beta-carotene ([3]; after 14 days oral treatment) of the same compound?
Its P-beta-carotene is 0.67 (0.10) μmol/l.

What about the P-cysteine ([3]; after 14 days oral treatment) of the same compound?
Its P-cysteine is 199 (13) μmol/l.

And the P-cysteinyl-glycine ([3]; after 14 days oral treatment)?
The P-cysteinyl-glycine was 16.6 (1.2) μmol/l.

What about the P-glutathione ([3]; after 14 days oral treatment) of the same compound?
The P-glutathione was 5.08 (0.54) μmol/l.

And the P-homocysteine ([3]; after 14 days oral treatment)?
Its P-homocysteine is 4.58 (0.47) μmol/l.

And the “P-vitamin A” value ([3]; after 14 days oral treatment)?
The value was 1.8 (0.2) μmol/l.

What about the “P-vitamin C” value ([3]; after 14 days oral treatment) of the same compound?
Its value is 58.6 (5.4) μmol/l.

What about the “P-vitamin E” value ([3]; after 14 days oral treatment) of the same compound?
Its value is 29.3 (1.5) μmol/l.

And the P-malondialdehyde ([3]; before treatment (day 1))?
Its P-malondialdehyde is 294 (25) nmol/l.

What about the P-beta-carotene ([3]; before treatment) of the same compound?
Its P-beta-carotene is 0.67 (0.09) μmol/l.

And the P-cysteine ([3]; before treatment)?
Its P-cysteine is 203 (11) μmol/l.

What about the P-cysteinyl-glycine ([3]; before treatment) of the same compound?
The P-cysteinyl-glycine was 16.7 (1.1) μmol/l.

And the P-glutathione ([3]; before treatment)?
Its P-glutathione is 5.05 (0.48) μmol/l.

And the P-homocysteine ([3]; before treatment)?
The P-homocysteine was 4.87 (0.59) μmol/l.

What about the “P-vitamin A” value ([3]; before treatment) of the same compound?
Its value is 1.7 (0.2) μmol/l.

What about the “P-vitamin C” value ([3]; before treatment) of the same compound?
Its value is 60.9 (6.0) μmol/l.

And the “P-vitamin E” value ([3]; before treatment)?
The value was 30.2 (1.8) μmol/l.

What about the U-8-iso-PGF2α [3, 6] of the same compound?
Its U-8-iso-PGF2α is 629 (124) pg/mg creatinine.

And the U-8-iso-PGF2α ([3]; before treatment (day 1))?
Its U-8-iso-PGF2α is 417 (46) pg/mg creatinine.

And the LD50 [4]?
The LD50 was 230 mg iron/kg.
